The values below come from US7579005B2, “Process for recombinant expression and purification of antimicrobial peptides using periplasmic targeting signals as precipitable hydrophobic tags” (E. I. du Pont de Nemours and Company, priority 2005, dated 2009).

Residues, ends and D or L forms follow the SMILES beside them.

Data set [1] can be described thus: Effect of pH on solubility of OmpAPerSD and PG1. The data set is classed as physicochemical. The following applies: chemically synthesized samples, pH 1 to 12, 15 minutes at room temperature, supernatant by BCA total protein; FIG. 6. As to the method: Stock solutions of chemically synthesized samples of OmpAPerSD and PG1 were made in 0.1N NaOH. The pH of each sample was adjusted by the addition of 0.2 M sodium phosphate buffer or 0.1N HCl. Finally, water was added to make the final volume of each sample the same and the samples were mixed by vortexing. After 15 minutes at room temperature all samples were centrifuged at 13,000×g in a micro-centrifuge. The supernatants were carefully separated from the insoluble precipitates and analyzed for protein by the BCA total protein method. Protein determinations were made using standard solutions of synthetic OmpAPerSD and PG1, respectively, in 0.1N NaOH. […] The difference in pH solubility of OmpAPerSD and PG1 peptides, with maximal difference at low pH, lends to their ready separation by centrifugation or filtration.

Another data set relates to E. coli expression host. The data set is described as follows: Growth of E. coli host cells expressing the fusion proteins (shake flask studies). Format: cell-based. Conditions: tryptophan induction. The procedure: Single colonies of E. coli containing pLH117 or pLH119 were grown in Rich Medium overnight at 30° C. at 250 rpm. A fresh culture was started the following day using 10% of the overnight growth diluted in Induction media and grown to an OD550 of 0.8. Induction media had no tryptophan (1×M9 salts, 0.2% casamino acids, 0.5% glucose, 1 mM MgCl2, and 100 ug/ml ampicillin). To facilitate induction, tryptophan was added for a final concentration of 100 μg/ml and flasks were incubated at 37° C. with shaking at 300 rpm. Samples were taken pre-induction and at 4, 8, and 12 hr post induction. Cell pellets were collected by centrifugation and analyzed for protein production.
Single colonies of E. coli containing pLH121 or pLH122 were grown in Rich Medium overnight at 30° C. at 250 rpm. A fresh culture was started the following day using 10% of the overnight growth in Induction medium and grown to an OD550 of 1.0 at 37°. To facilitate induction, tryptophan was added for a final concentration of 100 μg/ml. Samples were taken pre-induction and at 5 hr post induction. Cell pellets were collected by centrifugation and analyzed for protein production.

For the molecule `CC[C@H](C)[C@H](NC(=O)[C@H](C)NC(=O)[C@@H](NC(=O)[C@H](C)NC(=O)[C@@H](NC(=O)[C@H](CCCCN)NC(=O)[C@H](CCCCN)NC(=O)[C@@H](N)CCSC)[C@@H](C)O)[C@@H](C)CC)C(=O)N[C@@H](C)C(=O)N[C@H](C(=O)N[C@@H](C)C(=O)N[C@@H](CC(C)C)C(=O)N[C@@H](C)C(=O)NCC(=O)N[C@@H](Cc1ccccc1)C(=O)N[C@@H](C)C(=O)N[C@H](C(=O)N[C@H](C(=O)N[C@@H](C)C(=O)N[C@@H](CCC(N)=O)C(=O)N[C@@H](C)C(=O)N[C@@H](CC(=O)O)C(=O)O)C(C)C)[C@@H](C)O)C(C)C` [OmpAPerSD] (H-MKKTAIAIAVALAGFATVAQAD-OH; N-terminus and C-terminus assumed), the “solubility over a range of pH” value in data set [1] is reported as “increases with increasing pH”.

With “OmpA targeting signal sequence-16KGLG1-6His: fusion protein of OmpA periplasmic targeting signal, 16KGLG1 and 6His tag, expressed from pLH119 (MKKTAIAIAVALAGFATVAQAKGLKKLLKGLKKLLKLHHHHHH; OmpA PerS-G1-6His fusion protein)”, in the data set on E. coli expression host, the “growth of cells expressing the fusion protein versus control cells containing only pLEX” value was “grew at similar rates as control cells”.

Turning to `CC(C)C[C@H](NC(=O)[C@H](CCCCN)NC(=O)[C@H](CC(C)C)NC(=O)[C@H](CC(C)C)NC(=O)[C@H](CCCCN)NC(=O)[C@H](CCCCN)NC(=O)[C@H](CC(C)C)NC(=O)CNC(=O)[C@H](CCCCN)NC(=O)[C@H](CC(C)C)NC(=O)[C@H](CC(C)C)NC(=O)[C@H](CCCCN)NC(=O)[C@H](CCCCN)NC(=O)[C@H](CC(C)C)NC(=O)CNC(=O)[C@H](CCCCN)NC(=O)[C@@H]1CCCN1)C(=O)O` [P16KGLG1] (H-PKGLKKLLKGLKKLLKL-OH; N-terminus and C-terminus assumed), the “solubility over a range of pH” value in data set [1] is on record as “does not appear to be pH dependent”.
